Results reported in patent publication EP1832585A1, “Thiazole-piperidine derivatives for treatment of hyperproliferative diseases” (Oridis Biomed Forschungs- und Entwicklungs GmbH, priority 2006, dated 2007).

Key:
Format in all cases: cell-based
[1] = test system: HepG2; test: Proliferation assay (CellTiter-Glo luminescent cell viability assay), HepG2; conditions: human hepatoblastoma HepG2; 48 hours incubation; 10% (v/v) FCS; read-out: EC50, inhibition of HepG2 proliferation
Experimental: (§1) The assay is based on the relation that the ATP content is directly proportional to the number of cells present in the culture. The CellTiter-Glo® assay is performed to measure the proliferation rate of human hepatoma (HuH7, PLC/PRF/5, Hep3B, SK-Hep1), human hepatoblastoma (HepG2), human colon carcinoma (CX-2), human breast cancer (SK-Br-3), human […] (HeLa) and human pancreatic carcinoma (DAN-G) cell lines (see Example 2). […] Further, HepG2 and Hep3B are inhibited with an EC50 of 0.9 and 0.3 µM, respectively.
(§2) To determine the inhibition of cell proliferation a luminescent cell viability assay (CellTiter-Glo®; Promega, Madison, USA) is implemented. The assay is based on the relation that the ATP content is directly proportional to the number of cells present in the culture, see Technical Bulletin No. 228 "CellTiter-Glo® Luminescent Cell viability Assay", Revised 2/04. Promeg, Madison, USA. […] Triplicates are measured for each concentration. […] The final cell number is determined after 48 hour of incubation. […] After subsequent incubation for additional 10 minutes at room temperature the luminescence signal was recorded within 30 min. EC50 values are calculated using the four-parametric Hill equation (Sigma Plot). […]

[2] = test system: HeLa; test: Proliferation assay (CellTiter-Glo luminescent cell viability assay), HeLa; conditions: HeLa (printed as human ovarian carcinoma); 48 hours incubation; 10% (v/v) FCS; read-out: EC50 (effective concentration reducing cell proliferation by 50%), inhibition of HeLa proliferation
Experimental: as §1, §2

[3] = test system: Hep3B; test: Proliferation assay (CellTiter-Glo luminescent cell viability assay), Hep3B; conditions: human hepatoma Hep3B; 48 hours incubation; 10% (v/v) FCS; read-out: EC50, inhibition of Hep3B proliferation
Experimental: as §1, §2

[4] = test system: HuH7; test: Proliferation assay (CellTiter-Glo luminescent cell viability assay), HuH7; conditions: Huh-7; human hepatoma HuH7; 48 hours incubation; 10% (v/v) FCS; compounds 0 to 20 µM; read-out: EC50 (effective concentration reducing cell proliferation by 50%), inhibition of HuH7 proliferation
Experimental: as §1
To determine the inhibition of cell proliferation a luminescent cell viability assay (CellTiter-Glo®; Promega, Madison, USA) is implemented. The assay is based on the relation that the ATP content is directly proportional to the number of cells present in the culture, see Technical Bulletin No. 228 "CellTiter-Glo® Luminescent Cell viability Assay", Revised 2/04. Promeg, Madison, USA. The CellTiter-Glo® assay is performed to measure the proliferation rate of human hepatoma (HuH7, PLC/PRF/5, Hep3B, SK-Hep1), human hepatoblastoma (HepG2), human colon carcinoma (CX-2), human breast cancer (SK-Br-3), human […] (HeLa) and human pancreatic carcinoma (DAN-G) cell lines. 3000 viable cells (viability ≥ 90%) are seeded in opaque-walled 96-well plates and incubated for 24 hours in DMEM, supplemented with 2 mM glutamin. Cell proliferation is stimulated by addition of FCS to a final concentration of 10% (v/v). Simultaneously the compounds I to XVII (see Table 1 A to 1D and 2) are added in a concentration range of 0 to 20 µM. Triplicates are measured for each concentration. Cells and compounds (see Table 1 A to 1D, and 2) are incubated for a period of 48 hours in a volume of 140 µl cell culture medium (10% (v/v) FCS, 2 mM Glutamin, DMEM). The compounds are solved in 60% to 100% (v/v) DMSO at a concentration of 2 mM. The final DMSO concentration under assay conditions never exceeded 1% (v/v). Throughout the assay cells are kept in a humidified incubator (95% rH) at 37°C and 5% CO2. The final cell number is determined after 48 hour of incubation. Therefore 140 µl CellTiter-Glo®Reagent is added in each well. The contents are mixed on an orbital shaker for 2 minutes at room temperature. After subsequent incubation for additional 10 minutes at room temperature the luminescence signal was recorded within 30 min. EC50 values are calculated using the four-parametric Hill equation (Sigma Plot).
Control values are: (1) 10% (v/v) FCS, 2 mM Glutamin, DMEM -> maximum cell number and (2) 2 mM Glutamin, DMEM -> initial cell number.

[5] = test system: CX-2; test: Proliferation assay (CellTiter-Glo luminescent cell viability assay), CX-2; conditions: human colon carcinoma CX-2; 48 hours incubation; 10% (v/v) FCS; read-out: EC50 (effective concentration reducing cell proliferation by 50%), inhibition of CX-2 proliferation
Experimental: as §1, §2

[6] = test system: DAN-G; test: Proliferation assay (CellTiter-Glo luminescent cell viability assay), DAN-G; conditions: human pancreatic carcinoma DAN-G; 48 hours incubation; 10% (v/v) FCS; read-out: EC50 (effective concentration reducing cell proliferation by 50%), inhibition of DAN-G proliferation
Experimental: as §1, §2

[7] = test system: Sk-Br-3; test: Proliferation assay (CellTiter-Glo luminescent cell viability assay), SK-Br-3; conditions: human breast cancer SK-Br-3; 48 hours incubation; 10% (v/v) FCS; read-out: EC50 (effective concentration reducing cell proliferation by 50%), inhibition of SK-Br-3 proliferation
Experimental: as §1, §2

| Structure (SMILES) | EC50 [4] [µM] | other results |
| --- | --- | --- |
| O=C(/C=C/c1ccc2c(c1)OCO2)N1CCC(c2nc(-c3ccc4c(c3)OCCO4)cs2)CC1 [Compound I, E-3-{4-[4-(3,4-ethylendioxphenyl)-thiazol-2-yl]-piperidin-1-yl}-1-(3,4-methylendioxyphenyl)-3-oxo-prop-1-ene] | 0.33 | EC50 [1]: 0.9 µM; EC50 [2]: 14.8 µM; EC50 [3]: 0.3 µM; EC50 [5]: 19.1 µM; EC50 [6]: 4.69 µM; EC50 [7]: 10.8 µM |
| CCOC(=O)c1cc(-c2csc(C3CCN(C(=O)C(Cc4ccccc4F)NC(C)=O)CC3)n2)on1 (stereo not drawn) [III] | 1.61 | – |
| CCOC(=O)c1cc(-c2csc(C3CCN(C(=O)/C(C)=C/c4cc(OC)c(OC)cc4OC)CC3)n2)on1 [II] | 12.4 | – |
| COC(=O)C(NC(=O)N1CCC(c2nc(-c3ccc4c(c3)OCCO4)cs2)CC1)C(C)C (stereo not drawn) [IV] | 5.02 | – |
| O=C(C1COc2ccccc2O1)N1CCC(c2nc(-c3ccc4c(c3)OCCO4)cs2)CC1 (stereo not drawn) [IX] | 3.93 | – |
| CCOC(=O)CNC(=O)N1CCC(c2nc(-c3cccc(Br)c3)cs2)CC1 [VIII] | 1.89 | – |
| O=C(c1cccnc1OCC(F)(F)F)N1CCC(c2nc(-c3ccc4c(c3)OCCO4)cs2)CC1 [VII] | 6.2 | – |
| CCOC(=O)c1cc(-c2csc(C3CCN(C(=O)/C=C/c4ccc5c(c4)OCO5)CC3)n2)on1 [VI] | 20.7 | – |
| Cc1nn(C)c(Cl)c1/C=C/C(=O)N1CCC(c2nc(-c3ccc4c(c3)OCCO4)cs2)CC1 [V] | 10.7 | EC50 [2]: 18.7 µM; EC50 [5]: > 20 µM; EC50 [6]: 11.1 µM; EC50 [7]: > 20 µM |
| O=C(c1csc(-c2cnccn2)n1)N1CCC(c2nc(-c3ccc4c(c3)OCCO4)cs2)CC1 [XIII] | 6 | – |
| CCN(CC)c1ccc(-c2csc(C3CCN(Cc4ccc(N(CCC#N)CCC#N)cc4)CC3)n2)cc1 [XII] | 5.76 | – |
| O=C1CC(C(=O)N2CCC(c3nc(-c4ccc5c(c4)OCCO5)cs3)CC2)CN1Cc1cccs1 (stereo not drawn) [XIV] | 29 | – |

More lines, main results first:

| EC50 [4] [µM] | Structure (SMILES) | other results |
| --- | --- | --- |
| 3.35 | O=C(c1ccccc1C[S+]([O-])c1ccccc1)N1CCC(c2nc(-c3ccc4c(c3)OCCO4)cs2)CC1 (stereo not drawn) [XI] | – |
| 0.63 | CCOC(=O)/C=C/C(=O)N1CCC(c2nc(-c3ccc(Cl)c([N+](=O)[O-])c3)cs2)CC1 [XVII] | – |
| 24.9 | O=C(C1N=Nc2ccccc21)N1CCC(c2nc(-c3ccc4c(c3)OCCO4)cs2)CC1 (stereo not drawn) [XVI] | – |
| 4.94 | Cc1cc(Cl)ccc1NC(=O)COCC(=O)N1CCC(c2nc(-c3ccc4c(c3)OCCO4)cs2)CC1 [XV] | – |
| 1.93 | O=C(CCCc1nc2ccccc2[nH]1)N1CCC(c2nc(-c3cccc(Br)c3)cs2)CC1 [X] | – |
